Converted amounts (≈) assume the structure as drawn. Where two headings read alike, the source gives them in different places.
Key:
[1] = tested on: E. faecium E2359; assay: MIC assay; assay type: cell-based, Enterococcus faecium
[2] = tested on: S. aureus LIM-2, NR-25881; assay: MIC assay; assay type: cell-based, Staphylococcus aureus
Procedure: (§1) The antibacterial activity of the compounds was tested against a panel of bacteria, including Gram-positive bacteria (S. aureus ATCC29213, S. aureus USA300, S. aureus LIM-2, NR-45881, S. aureus HIP13419, NR-46413, E. faecium E155, E. faecium E7314, E. faecium E980, E. faecalis E1246, E. faecalis E7406 and S. pneumonia 153). The antibacterial activity of the compounds was further tested against S. aureus NY-155, NR-46236, S. aureus HIP12864, NR-46074, S. aureus 880 (BR-VRSA), NR-49120, E. faecalis E1246, E. faecalis E7604, as well as some Gram-negative bacteria (Escherichia coli and Klebsiella pneumoniae). Minimum inhibitory concentrations (MICs) in μg/mL were performed according to the CLSI guidelines. From glycerol stocks, bacterial strains were cultured on blood agar plates and incubated at 37° C. for 18 h. A single colony was transferred to tryptic soy broth (TSB) with 0.002% polysorbate 80 (p80). For the Enterococcus, VISA and VRSA strains, the cultures were grown at 37° C. until the optical density of the suspension reached a level equivalent to the 0.5 McFarland standard. The bacterial suspensions were diluted in TSB with 0.002% p80 to reach a bacterial cell density of 10^6 CFU/mL. In case of the other (vancomycin-sensitive) S. aureus strains, the direct colony suspension method was used. For these strains, after transfer of the colonies to TSB with 0.002% p80, they were immediately diluted to 10^6 CFU/mL, instead of incubated prior to this dilution. In the case of S. pneumonia, direct colony suspension was used by immediately suspending multiple colonies from fresh blood agar plates in TSB+0.002% p80 to an OD600 of 0.5 and subsequent dilution to 10^6 CFU mL^−1 in TSB+0.002% p80+5% lysed horse blood. Antibiotic dilutions for this strains were also made in TSB+0.002% p80+5% lysed horse blood. Both agar and microplates containing S. pneumonia were incubated at 37° C. with 5% CO2 for 24 h with constant shaking (600 rpm). […] The cultures were grown to exponential phase (OD600=0.5) at 37° C. […] In polypropylene 96-well microtiter plates, test compounds were added in biological triplicates and serial diluted 2-fold by transfer and mixing from one well to the next to achieve a final volume of 50 μL per well. An equal volume of bacterial suspension (10^6 CFU mL^−1) was added to the wells. The plates were sealed with breathable membranes and incubated at 37° C. for 24 h with constant shaking (600 rpm). In polypropylene microtiter plates, 100 μL of the test compounds was added to the first row in biological triplicates, and 50 μL of media was added to the other wells. The compounds were subjected to serial dilution by transfer and mixing of 50 μL from one well to the next. Subsequently, 50 μL of bacterial suspension (10^6 CFU/mL) was added to the wells. The plates were sealed with breathable membranes and incubated at 37° C. for 24 h with constant shaking (600 rpm). Positive growth control consisted of wells with bacterial suspension and without antibiotic. Negative growth control consisted of solely media without bacterial suspension or antibiotic. The MICs were determined from the median of a minimum of triplicates.

[3] = tested on: S. aureus 880 (BR-VRSA), NR-49120; assay: MIC assay; assay type: cell-based, Staphylococcus aureus
Procedure: as §1

[4] = tested on: S. aureus ATCC29213; assay: MIC assay; assay type: cell-based, Staphylococcus aureus
Procedure: as §1

[5] = tested on: S. aureus HIP12864, NR-46074; assay: MIC assay; assay type: cell-based, Staphylococcus aureus
Procedure: as §1

[6] = tested on: S. aureus NY-155, NR-46236; assay: MIC assay; assay type: cell-based, Staphylococcus aureus
Procedure: as §1

[7] = tested on: E. faecium E7314; assay: microbe, parasite or virus in culture; assay type: cell-based, Enterococcus faecium
Procedure: as §1

[8] = tested on: E. faecium E155; assay: microbe, parasite or virus in culture; assay type: cell-based, Enterococcus faecium
Procedure: as §1

[9] = tested on: panel of 31 vancomycin-resistant E. faecium strains; assay: MIC assay, MIC50/MIC90 over panel; assay type: cell-based, Enterococcus faecium
Procedure: as §1

[10] = tested on: Escherichia coli ATCC 35218; assay: MIC assay; assay type: cell-based
In short: (§2)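 Following CLSI guidance, the assay uses twofold compound dilutions in tryptic soy broth plus 0.002% polysorbate 80, equal-volume inoculum of 10^6 CFU/mL, and a 24 h shaken incubation at 37 °C. Values are medians of triplicate or more, in μg/mL.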

[11] = tested on: Klebsiella pneumoniae ATCC 27736; assay: MIC assay; assay type: cell-based
In short: as §2

[12] = tested on: E. faecium E1441; assay: MIC assay; assay type: cell-based, Enterococcus faecium
[13] = tested on: E. faecium E7312; assay: MIC assay; assay type: cell-based, Enterococcus faecium
[14] = tested on: S. aureus HIP13419, NR-46413; assay: microbe, parasite or virus in culture; assay type: cell-based, Staphylococcus aureus
Procedure: as §1

[15] = tested on: S. aureus USA300; assay: microbe, parasite or virus in culture; assay type: cell-based, Staphylococcus aureus
Procedure: as §1

[16] = Staphylococcus aureus, ATCC 29213 / MSSA
[17] = Staphylococcus aureus, MRSA / USA300
[18] = S. aureus HIP12864, NR-46074 VISA
[19] = S. aureus NY-155, NR-46236 MRSA
[20] = E. faecium E7314, VanB (Table 10)
[21] = E. faecium E155, VanA (Table 10)
[22] = panel of 31 vancomycin-resistant E. faecium strains
[23] = S. aureus HIP13419, NR-46413 VRSA

Compound | MIC ([1]; Enterococcus faecium, E2359) [µg/mL] | MIC ([2]; Staphylococcus aureus, VISA) [µg/mL] | MIC ([3]; Staphylococcus aureus, VRSA) [µg/mL] | MIC ([3]; strain BR-VRSA) [µg/mL] | MIC [4, 16] [µg/mL] | MIC ([5]; Staphylococcus aureus, VISA) [µg/mL] | MIC ([6]; Staphylococcus aureus, MRSA) [µg/mL] | MIC ([7]; Enterococcus faecium, E7314) [µg/mL] | MIC ([7]; Enterococcus faecium, VRE) [µg/mL] | MIC ([8]; Enterococcus faecium, E155) [µg/mL] | MIC ([8]; Enterococcus faecium, VRE) [µg/mL] | MIC50 ([9]; Enterococcus faecium) [µg/mL] | MIC90 ([9]; Enterococcus faecium) [µg/mL] | MIC [10] [µg/mL] | MIC ([11]; ATCC27736, read-out: MIC) [µg/mL] | MIC ([12]; Enterococcus faecium, E1441) [µg/mL] | MIC ([13]; Enterococcus faecium, E7312) [µg/mL] | MIC ([14]; Staphylococcus aureus, VRSA) [µg/mL] | MIC [15, 17] [µg/mL] | MIC ([1]; E. faecium E2359, VanB) [µg/mL] | other results
CCCCCCCCCCNCCN[C@@]1(C)C[C@H](O[C@H]2[C@H](Oc3c4cc5cc3Oc3ccc(cc3Cl)[C@@H](O)[C@@H](NC(=O)[C@@H](CC(C)C)NC)C(=O)N[C@@H](CC(N)=O)C(=O)N[C@H]5C(=O)N[C@H]3C(=O)N[C@H](C(=O)N[C@H](C(=O)O)c5cc(O)c(CNCP(=O)(O)O)c(O)c5-c5cc3ccc5O)[C@H](O)c3ccc(c(Cl)c3)O4)O[C@H](CO)[C@@H](O)[C@@H]2O)O[C@@H](C)[C@H]1O [Telavancin, reference compound] | ≤ 0.008 | 0.25 (≈ 0.142 µM) | 8 (≈ 4.56 µM) | 8 (≈ 4.56 µM) | 0.125 (≈ 0.0712 µM) | 0.25 (≈ 0.142 µM) | 0.031 (≈ 0.0177 µM) | ≤ 0.008 | ≤ 0.00781 | 4 (≈ 2.28 µM) | 4 (≈ 2.28 µM) | 4 (≈ 2.28 µM) | 8 (≈ 4.56 µM) | > 128 | > 128 | 8 (≈ 4.56 µM) | 2 (≈ 1.14 µM) | 4 (≈ 2.28 µM) | 0.125 (≈ 0.0712 µM) | – | –
CN[C@H](CC(C)C)C(=O)N[C@H]1C(=O)N[C@@H](CC(N)=O)C(=O)N[C@H]2C(=O)N[C@H]3C(=O)N[C@H](C(=O)N[C@H](C(=O)O)c4cc(O)cc(O)c4-c4cc3ccc4O)[C@H](O[C@H]3C[C@](C)(N)[C@@H](O)[C@H](C)O3)c3ccc(c(Cl)c3)Oc3cc2cc(c3O[C@@H]2O[C@H](CO)[C@@H](O)[C@H](O)[C@H]2O[C@H]2C[C@](C)(NCc3ccc(-c4ccc(Cl)cc4)cc3)[C@@H](O)[C@H](C)O2)Oc2ccc(cc2Cl)[C@H]1O [Oritavancin] | – | 1 (≈ 0.558 µM) | 0.25 (≈ 0.139 µM) | 0.25 (≈ 0.139 µM) | 0.25 (≈ 0.139 µM) | 4 (≈ 2.23 µM) | 0.25 (≈ 0.139 µM) | – | 0.125 (≈ 0.0697 µM) | – | 0.5 (≈ 0.279 µM) | – | – | – | – | – | – | 0.25 (≈ 0.139 µM) | 0.0625 (≈ 0.0349 µM) | – | –
CCCCCCN(CCCCCC)C(N)=Nc1ccc(CN[C@@]2(C)C[C@H](O[C@H]3[C@H](Oc4c5cc6cc4Oc4ccc(cc4Cl)[C@@H](O)[C@@H](NC(=O)[C@@H](CC(C)C)NC)C(=O)N[C@@H](CC(N)=O)C(=O)N[C@H]6C(=O)N[C@H]4C(=O)N[C@H](C(=O)N[C@H](C(=O)O)c6cc(O)cc(O)c6-c6cc4ccc6O)[C@H](O)c4ccc(c(Cl)c4)O5)O[C@H](CO)[C@@H](O)[C@@H]3O)O[C@@H](C)[C@H]2O)cc1 [Compound 12] | – | – | – | 1 (≈ 0.567 µM) | – | – | – | – | – | – | – | – | – | >128 | – | – | – | – | – | ≤0.008 | MIC ([2]; S. aureus LIM-2, NR-25881 VISA): ≤0.008 µg/mL; MIC ([3]; S. aureus 880, NR-49120 VRSA): 1 µg/mL (≈ 0.567 µM); MIC ([4]; S. aureus ATCC29213 MSSA): ≤0.007812 µg/mL; MIC [5, 18]: 0.063 µg/mL (≈ 0.0357 µM); MIC [6, 19]: ≤0.008 µg/mL; MIC [7, 20]: ≤0.008 µg/mL; MIC ([7]; E. faecium E7314 VRE (VanB)): ≤0.007812 µg/mL; MIC [8, 21]: 1 µg/mL (≈ 0.567 µM); MIC ([8]; E. faecium E155 VRE (VanA)): 1 µg/mL (≈ 0.567 µM); MIC50 [9, 22]: 0.25 µg/mL (≈ 0.142 µM); MIC90 [9, 22]: 2 µg/mL (≈ 1.13 µM); MIC [11]: >128 µg/mL; MIC ([12]; E. faecium E1441, VanA): 2 µg/mL (≈ 1.13 µM); MIC ([13]; E. faecium E7312, VanA): 0.125 µg/mL (≈ 0.0708 µM); MIC [14, 23]: 0.25 µg/mL (≈ 0.142 µM); MIC ([15]; MRSA USA300, TSB + 0.002% p80): 0.063 µg/mL; MIC ([15]; S. aureus USA300 MRSA): 0.0625 µg/mL (≈ 0.0354 µM)
CN[C@H](CC(C)C)C(=O)N[C@H]1C(=O)N[C@@H](CC(N)=O)C(=O)N[C@H]2C(=O)N[C@H]3C(=O)N[C@H](C(=O)N[C@H](C(=O)O)c4cc(O)cc(O)c4-c4cc3ccc4O)[C@H](O)c3ccc(c(Cl)c3)Oc3cc2cc(c3O[C@@H]2O[C@H](CO)[C@@H](O)[C@H](O)[C@H]2O[C@H]2C[C@](C)(N)[C@H](O)[C@H](C)O2)Oc2ccc(cc2Cl)[C@H]1O [Vancomycin, reference compound] | 128 (≈ 88.3 µM) | 8 (≈ 5.52 µM) | > 128 | >128 | 1 (≈ 0.69 µM) | 8 (≈ 5.52 µM) | 2 (≈ 1.38 µM) | 128 (≈ 88.3 µM) | 128 (≈ 88.3 µM) | > 128 | > 128 | 128 (≈ 88.3 µM) | 128 (≈ 88.3 µM) | > 128 | > 128 | > 128 | > 128 | > 128 | 1 (≈ 0.69 µM) | – | –
CCCCCCCCNC(N)=Nc1ccc(CN[C@@]2(C)C[C@H](O[C@H]3[C@H](Oc4c5cc6cc4Oc4ccc(cc4Cl)[C@@H](O)[C@@H](NC(=O)[C@@H](CC(C)C)NC)C(=O)N[C@@H](CC(N)=O)C(=O)N[C@H]6C(=O)N[C@H]4C(=O)N[C@H](C(=O)N[C@H](C(=O)O)c6cc(O)cc(O)c6-c6cc4ccc6O)[C@H](O)c4ccc(c(Cl)c4)O5)O[C@H](CO)[C@@H](O)[C@@H]3O)O[C@@H](C)[C@H]2O)cc1 [Compound 6] | – | – | – | – | – | – | – | – | – | – | – | – | – | >128 | – | – | – | – | – | ≤0.008 | MIC ([2]; S. aureus LIM-2, NR-25881 VISA): ≤0.008 µg/mL; MIC ([3]; S. aureus 880, NR-49120 VRSA): 2 µg/mL (≈ 1.17 µM); MIC ([4]; S. aureus ATCC29213 MSSA): ≤0.007812 µg/mL; MIC [5, 18]: ≤0.008 µg/mL; MIC [6, 19]: ≤0.008 µg/mL; MIC [7, 20]: ≤0.008 µg/mL; MIC ([7]; E. faecium E7314 VRE (VanB)): ≤0.007812 µg/mL; MIC [8, 21]: 1 µg/mL (≈ 0.585 µM); MIC ([8]; E. faecium E155 VRE (VanA)): 1 µg/mL (≈ 0.585 µM); MIC50 [9, 22]: 0.5 µg/mL (≈ 0.293 µM); MIC90 [9, 22]: 4 µg/mL (≈ 2.34 µM); MIC [11]: >128 µg/mL; MIC ([12]; E. faecium E1441, VanA): 2 µg/mL (≈ 1.17 µM); MIC ([13]; E. faecium E7312, VanA): 0.063 µg/mL (≈ 0.0369 µM); MIC [14, 23]: 0.5 µg/mL (≈ 0.293 µM); MIC ([15]; MRSA USA300, TSB + 0.002% p80): ≤0.008 µg/mL; MIC ([15]; S. aureus USA300 MRSA): ≤0.007812 µg/mL
